Results from patent publication US8895717B2, “Delivery of siRNA by neutral lipid compositions” (The Board of Regents of the University of Texas System, priority 2005, dated 2014).
Structures can show the parent of a compound that is named as a salt.

Legend:
VEGF mRNA = VEGF mRNA expression, real-time RT-PCR; type: cell-based, human; details: SKOV3ip1; forskolin 1 μM, db-cAMP 1 mM
Protocol: Total RNA was extracted (Trizol reagent; Invitrogen Co, Carlsbad, Calif.) and reverse transcribed using an oligo(dT) primer and M-MLV reverse transcriptase (Life Technologies, Inc., Rockville, Md.) in a final reaction volume of 20 μl (60 min at 42° C.). PCR amplifications are performed using the ABI Prism 7700 Sequence Detection System with TaqMan One-Step RT-PCR Master Mix Reagent kit (PE Applied Biosystems, Foster City, Calif.). Quantitative values are obtained from the Ct value, at which the increase in fluorescent signal associated with exponential growth of PCR products starts to be detected by the laser detector of the Sequence Detection System, using the analysis software according to the manufacturer's instructions (each sample is normalized on the basis of its I8S content). The VEGF primers were obtained from Applied Biosystems (Item number HS00173626-ml). βAR expression was examined with semi-quantitative RT-PCR using the following primers: βAR (forward, 5′-[…]-3′ (SEQ ID NO:13), reverse, 5′-[…]-3′) (SEQ ID NO:14); β2AR (forward, 5′-[…]-3′ (SEQ ID NO:15), reverse, 5′-[…]-3′) (SEQ ID NO:16).

FAK = FAK cleavage in response to docetaxel, Western blot; type: cell-based, human; details: in the presence of DEVD-fmk
Protocol: Cells were lysed in modified RIPA buffer (50 mM Tris, 150 mM NaCl, 1% triton, 0.5% deoxycholate plus 25 µg/ml leupeptin, 10 µg/ml aprotinin, 2 mM EDTA, and 1 mM sodium orthovanadate (Sigma Chemical Co, St. Louis, Mo.) as previously described (Sood et al., 2004; Sood et al., 2002). A sample was removed from culture dishes by cell scraping and centrifuged at 12,500 rpm for 30 min. The […] protein concentration of the supernatant was determined using a bicinchoninic acid protein assay reagent kit (Pierce, Rockford, Ill.), and whole cell lysates were analyzed by 7.5% SDS-PAGE. Samples were then transferred to nitrocellulose membrane by semi-dry transfer (BioRad Laboratories, Hercules, Calif.). Membranes were blocked with 5% nonfat milk, and incubated with 0.25 μg/mL anti-FAK antibody (Biosource, International Camarillo, Calif.) for 1 h at room temperature. Antibody was detected with 0.167 μg/mL HRP-conjugated anti-mouse secondary antibody (The Jackson Laboratory, Bar Harbor, Me.) and developed with an enhanced chemiluminescence detection kit (Pierce). Equal loading was confirmed by detection of β-actin (0.1 μg/ml, anti-β-actin antibody, Sigma Chemical). Densitometric analysis was performed using the Scion Imaging software (Scion Corporation, Frederick, Md.).
It has been reported that FAK may be cleaved by caspase-3 (Gervais et al., 1998; Sasaki et al., 2002; Carragher et al., 2001). Based on observations regarding modulation of caspase levels by docetaxel in ovarian cancer cells, FAK cleavage after treatment with docetaxel was examined and whether there are differences in extent of FAK cleavage between the taxane-sensitive and taxane-resistant cell lines. In SKOV3 cells, FAK was cleaved after 48 and 72 hours of exposure to docetaxel (FIG. 7A). The 71-kDa fragments increased after treatment with docetaxel, whereas the 125-kDa fragments decreased. […] To study the dependence of FAK cleavage on caspase-3, the effect of DEVDfmk (caspase-3 inhibitor) was examined.

SKOV3 cells = experiment: TUNEL apoptosis assay, SKOV3; type: cell-based, human; details: SKOV3, docetaxel 72 hours without or with DEVD-fmk
Protocol: (§1) Terminal deoxynucleotidyl transferase-mediated nick end labeling-positive cells were detected using Dead End Fluorometric terminal deoxynucleotidyl transferase-mediated nick end labeling system (APO-DIRECT, BD Biosciences/PharMingen, San Diego, Calif.) according to the manufacturer's instructions. […] Cells were fixed with 4% paraformaldehyde solution for 25 minutes on ice. Intracellular DNA fragments were then labeled by exposing cells to fluorescein-12-dUTP, treated with propidium iodide and RNaseA solution, and analyzed by flow cytometry (EPICS XL, Beckman Coulter, Miami, Fla.). The percentages of apoptotic cells were averaged over three consecutive experiments.

HeyA8 cells [1] = experiment: TUNEL apoptosis assay, HeyA8; type: cell-based, human; details: HeyA8, docetaxel 72 hours without or with DEVD-fmk
Protocol: as §1

HeyA8 cells [2] = experiment: Daily β-agonist treatment of mice bearing HeyA8 ovarian cancer cells; type: in vivo, nude mice; details: terbutaline 5 mg/kg, xamoterol 1 mg/kg, isoproterenol plus propranolol 2 mg/kg, daily
From the text: Mice habituated to vivarium conditions for 1 week before the initiation of stress procedures. A restraint-stress procedure was used based on previous studies (Sheridan et al., 1991), substituting a novel Mouse Restraint System (FIG. 15A) for conical centrifuge tubes. In this system, up to 10 mice are placed in individual slots, and each slot can be adjusted to restrain the animal for a desired length of time. In the present study, restraint stress began between 8 a.m. and 10 a.m., and lasted for 2-6 hours for up to 21 days. The ovarian cancer cell lines were harvested from subconfluent cultures by a brief exposure to 0.25% trypsin and 0.02% EDTA, resuspended in Hank's balanced salt solution (HBSS), and tested for >95% viability by trypan blue dye exclusion. The HeyA8 cells were injected i.p. into mice at a concentration of 2.5×10^5 cells while the other cell lines were injected at 1.0×10^6 cells per 0.2 ml HBSS, ten days after starting stress in all groups. Animals were necropsied 21 days after tumor injection, and tumors in the peritoneal cavity were excised, weighed, and documented for location. Immunohistochemistry and H&E staining procedures were carried out on formalin-fixed paraffin-embedded tumors.
Starting 4 days after tumor cell injection, mice bearing HeyA8 ovarian cancer cells (n=10 per group) were treated daily with either 1) PBS; 2) isoproterenol (non-specific β-agonist) 10 mg/kg; 3) terbutaline (β2-agonist) 5 mg/kg; 4) xamoterol (β1-agonist) 1 mg/kg; or 5) isoproterenol plus 2 mg/kg of the non-specific β-antagonist propranolol.

HeyA8 tumor samples = experiment: Mean vessel density (CD31) in HeyA8 tumor samples; type: in vivo, nude mice; details: for MVD counts: daily agonist treatment
Protocol: Paraffin sections were stained for CD31 (1:800 dilution, Pharmingen, San Jose, Calif.), MMP-2 (1:500 dilution, Chemicon, Temecula, Calif.), MMP-9 (1:200 dilution, Calbiochem, San Diego, Calif.), VEGF (1:500 dilution, Santa Cruz Biotechnology, Santa Cruz, Calif.) and bFGF (1:1,000 dilution, Sigma, St. Louis, Mo.) at 4° C. Samples were stained with a biotinylated goat anti-rabbit antibody for 30 min (prediluted), followed by strepavidin horseradish peroxidase for 30 min (1:300 dilution), and visualized in 3,3′-diaminobenzidine (DAB) for 5-10 min.
To quantify MVD, 10 random 0.159 mm^2 fields at 100× magnification were examined for each tumor, and the microvessels within those fields were counted. A single microvessel was defined as a discrete cluster of cells stained CD31(+), and the presence of a lumen was required for scoring as a microvessel.

HeyA8 cells [3] = experiment: Chronic restraint stress, HeyA8 orthotopic tumor growth; type: in vivo, nude mice; details: propranolol Alzet pump 2 mg/kg/day
From the text: Mice habituated to vivarium conditions for 1 week before the initiation of stress procedures. A restraint-stress procedure was used based on previous studies (Sheridan et al., 1991), substituting a novel Mouse Restraint System (FIG. 15A) for conical centrifuge tubes. In this system, up to 10 mice are placed in individual slots, and each slot can be adjusted to restrain the animal for a desired length of time. In the present study, restraint stress began between 8 a.m. and 10 a.m., and lasted for 2-6 hours for up to 21 days. […] Immunohistochemistry and H&E staining procedures were carried out on formalin-fixed paraffin-embedded tumors. […] Pumps were inserted on the nape of the neck 7 days prior to initiation of restraint stress for 2 hours daily. Mice were anesthetized with inhaled methoxyflurane (Medical Developments Australia Pty. Ltd, Melbourne, Australia), and implanted with Alzet pumps containing PBS or S-propranolol hydrochloride (Sigma Co., St. Louis, Mo.) diluted in PBS at a dose of 2 mg/kg/day, which allows for chronic continuous receptor blockade, for 28 days (Aarons and Molinoff, 1982; Exton et al., 2002).

CCCC(=O)Nc1ncnc2c1ncn2[C@@H]1O[C@@H]2COP(=O)(O)O[C@H]2[C@H]1OC(=O)CCC [dibutyryl cAMP]
effect on VEGF mRNA (VEGF mRNA): also increased VEGF mRNA levels

COC(=O)CC[C@H](NC(=O)[C@H](CC(=O)OC)NC(=O)OCc1ccccc1)C(=O)N[C@H](C(=O)N[C@@H](CC(=O)OC)C(=O)CF)C(C)C [DEVD-fmk]
docetaxel-induced FAK cleavage (FAK): docetaxel-induced FAK cleavage was blocked
proportion of apoptotic cells (SKOV3 cells): 7%
proportion of apoptotic cells (HeyA8 cells [1]): 6%

CC(C)NC[C@H](O)COc1cccc2ccccc12 (racemic) [propranolol, S-propranolol hydrochloride]
tumor burden (HeyA8 cells [2]): blocked the isoproterenol-induced increase in tumor growth
MVD counts (HeyA8 tumor samples): blocked that increase as well
stress-induced increases in MVD counts (HeyA8 tumor samples; stressed animals): efficiently blocked stress-induced increases in MVD counts
invasive disease among stressed animals (HeyA8 cells [3]): 0%
effect of stress on tumor weight and number of nodules (HeyA8 cells [3]; daily 2 hour stress): stress did not significantly increase tumor weight or the number of tumor nodules
effect on VEGF mRNA (VEGF mRNA): blocked

CC(C)(C)NCC(O)c1cc(O)cc(O)c1 (stereo not drawn) [terbutaline]
MVD counts (HeyA8 tumor samples): significantly higher MVD counts compared to controls

CCCCCCOC(=O)[C@]1(O)C[C@@H]2O[C@@]1(C)n1c3ccccc3c3c4c(c5c6ccccc6n2c5c31)C(=O)NC4 [KT5720]
effect on VEGF mRNA (VEGF mRNA): efficiently blocked the effects of norepinephrine and forskolin on VEGF mRNA expression
